{
  "source": "paper PMC6722648",
  "about": "“Phenazine Derivatives with Anti-Inflammatory Activity from the Deep-Sea Sediment-Derived Yeast-Like Fungus Cystobasidium laryngis IV17-028” (Marine Drugs, 2019)",
  "key": {"[1]": {"experiment": "Stability to light and on storage (observation)"}, "[2]": {"tested_on": "LPS-induced NO production in RAW 264.7 cells", "experiment": "NO assay: nitrite quantification (Griess) in LPS-stimulated macrophages", "assay_type": "cell-based, murine", "details": "Mus musculus, RAW264.7, LPS 200 ng/mL, 24 h, read-out: EC50 against NO assay", "description": "NO2^− accumulation was used as an indicator of NO production as described previously. RAW 264.7 cells were plated at 5 × 10^5 cells/mL, pre-treated with various concentrations (0.3, 1, 3, 10 or 30 μg/mL) of 1–7 and stimulated with LPS (200 ng/mL) for 24 h. The supernatants were mixed with an equal volume of Griess reagent (1% sulfanilamide, 0.1% naphthylethylenediamine dihydrochloride and 2% phosphoric acid) and incubated at room temperature for 10 min. NaNO2 was used to generate a standard curve, and the concentration of nitrite in the medium was determined by measuring optical density at 540 nm. Cell viability was determined by XTT assay as described previously. And it was confirmed that the concentration of compounds used in this study has no significant effect on cell viability."}},
  "note": "Where two headings read alike, the source gives them in different places.",
  "data": [
    {"smiles": "CC(OC(=O)c1ccccc1N)c1cccc2nc3c(C(=O)O)cccc3nc12", "note": "(centres unmarked) [Compound 1, 6-[1-(2-aminobenzoyloxy)ethyl]-1-phenazinecarboxylic acid]", "values": [
      {"measurement": "storage stability", "setting": "[1]; in the dark and fridge", "value": "changelessly stored in the dark and fridge for several weeks"},
      {"measurement": "stability under the light", "setting": "[1]; under the light", "value": "easily changed under the light"},
      {"measurement": "EC50", "setting": "[2]; compounds 0.3-30 μg/mL", "value": 18.1, "unit": "µg/mL"},
      {"measurement": "EC50", "setting": "[2]", "value": 46.8, "unit": "µM"}
    ]},
    {"smiles": "C[C@@H](O)c1cccc2nc3c(C(N)=O)cccc3nc12", "note": "[Compound 2, saphenic amide]", "values": [
      {"measurement": "EC50", "setting": "[2]; compounds 0.3-30 μg/mL", "value": "> 30", "unit": "µg/mL"}
    ]},
    {"smiles": "C[C@@H](O)c1cccc2nc3c([C@@H](C)O)cccc3nc12", "note": "[Compound 3, saphenol]", "values": [
      {"measurement": "EC50", "setting": "[2]; compounds 0.3-30 μg/mL", "value": 14.7, "unit": "µg/mL"},
      {"measurement": "EC50", "setting": "[2]", "value": 54.7, "unit": "µM"}
    ]},
    {"smiles": "C[C@@H](O)c1cccc2nc3c(C(=O)O)cccc3nc12", "note": "[Compound 4, (R)-saphenic acid]", "values": [
      {"measurement": "colour change of yellow needle form in light", "setting": "[1]; day light as well as fluorescent light, also previously reported [9]", "value": "turned brown after several hours"},
      {"measurement": "colour change in hydrophilic solvents under the light", "setting": "[1]; methanol and dimethyl sulfoxide, under the light", "value": "quickly turned from yellow into orange"},
      {"measurement": "EC50", "setting": "[2]; compounds 0.3-30 μg/mL", "value": 6.15, "unit": "µg/mL"},
      {"measurement": "EC50", "setting": "[2]", "value": 22.9, "unit": "µM"}
    ]},
    {"smiles": "O=C(O)c1cccc2nc3ccccc3nc12", "note": "[Compound 5, phenazine-1-carboxylic acid]", "values": [
      {"measurement": "EC50", "setting": "[2]; compounds 0.3-30 μg/mL", "value": 17.1, "unit": "µg/mL"},
      {"measurement": "EC50", "setting": "[2]", "value": 76.1, "unit": "µM"}
    ]},
    {"smiles": "CO[C@H](C)c1cccc2nc3c(C(=O)O)cccc3nc12", "note": "[Compound 6]", "values": [
      {"measurement": "EC50", "setting": "[2]; compounds 0.3-30 μg/mL", "value": 5.53, "unit": "µg/mL"},
      {"measurement": "EC50", "setting": "[2]", "value": 19.6, "unit": "µM"}
    ]},
    {"smiles": "CC(=O)c1cccc2nc3c(C(=O)O)cccc3nc12", "note": "[Compound 7, 6-acetyl-phenazine-1-carboxylic acid]", "values": [
      {"measurement": "EC50", "setting": "[2]; compounds 0.3-30 μg/mL", "value": 5.32, "unit": "µg/mL"},
      {"measurement": "EC50", "setting": "[2]", "value": 20, "unit": "µM"}
    ]}
  ]
}
